Measured values: paper PMC4412663, “Pathway for Biodegrading Microcystin-YR by Sphingopyxis sp. USTB-05” (PLoS ONE, 2015)

What was measured:
[1] = test system: crude enzymes (CEs) of Sphingopyxis sp. USTB-05; settings: cited from earlier work
[2] = test system: Sphingopyxis sp. USTB-05; settings: cited from earlier work
[3] = test system: crude enzymes (CEs) of Sphingopyxis sp. USTB-05; assay: Enzymatic biodegradation by crude enzymes (CEs) of Sphingopyxis sp. USTB-05; type: in vitro ADME
Method: At logarithmic growth phase of the third day, the culture solution of Sphingopyxis sp. USTB-05 was centrifuged at 8,000 r/min for 20 min, and then the supernatant was decanted. The pelleted cells were washed three times with 50 mmol/L phosphate buffer solution (PBS, pH 7.0). The harvested cells were resuspended in 20 mL PBS and disrupted using an ultrasonic disruptor with an output power of 600 W for 15 min at 4°C. The cell debris was removed by centrifugation at 12,000 r/min for 30 min. The supernatant was collected, and after handling by 3500 MWCO dialysis bag small molecules such as Tyr was removed, it was used as CEs in the enzymatic biodegradation of MC-YR and its protein profile was determined using sodium dodecyl sulfate-polyacrylamide gel electrophoresis (SDS-PAGE) on 12% polyacrylamide gel. […].
The total biodegradation reaction volume was 5 mL containing 14.8 mg/L MC-YR and 103.6 mg/L protein in PBS in a 10 mL centrifuge tube. The reaction was at 30°C with the shake rate of 200 r/min. […]
MC-YR and its enzymatic biodegradation products were firstly measured using a HPLC system (Shimadzu LC-10ATVP, Shimadzu Co., Ltd., Japan) with a ultraviolet (UV) Diode Array Detector at 238 nm and 230 nm using a Agilent TC-C18 column (4.6 mm×250 mm) (Agilent, 1200 series, USA). […]

## microcystin-LR [MC-LR]
[1]
  time to total removal by CEs of USTB-05: ≤ 10 h
[2]
  time to total removal by USTB-05: ≤ 20 h

## microcystin-RR [MC-RR]
[2]
  time to complete biodegradation by Sphingopyxis sp. USTB-05: ≤ 36 h

## microcystin-YR [MC-YR]
[3]
  average biodegradation rate of MC-YR: 1.5 mg/L per hour
[3]; pH 7
  time to complete removal of MC-YR by CEs: ≤ 10 h
